Holding throughout (format): functional
The subject of one assay is Klebsiella pneumoniae. Briefly: Antibacterial activity against Klebsiella pneumoniae MTCC 139 assessed as growth inhibition after 24 hr by broth microdilution method. As to conditions: MTCC 139, 24 h.
For another assay, the system named is Aspergillus niger. Nature of the assay: Antifungal activity against Aspergillus niger MTCC 282 assessed as growth inhibition after 48 hr by broth microdilution method. As to conditions: MTCC 282, 48 h.
For another assay, the system named is Escherichia coli. Briefly: Antibacterial activity against Escherichia coli MTCC 443 assessed as growth inhibition after 24 hr by broth microdilution method. As to conditions: MTCC 443, 24 h. On the technique in general: Broth dilution looks for growth in wells or tubes with falling amounts of substance.
The subject of the next assay is Pseudomonas aeruginosa. Briefly: Antibacterial activity against Pseudomonas aeruginosa MTCC 1688 assessed as growth inhibition after 24 hr by broth microdilution method. As to conditions: MTCC 1688, 24 h.
The next assay has as its system Bacillus cereus. Nature of the assay: Antibacterial activity against Bacillus cereus MTCC 1305 assessed as growth inhibition after 24 hr by broth microdilution method. Conditions: MTCC 1305, 24 h.
For a further assay, the system named is Candida albicans. Nature of the assay: Antifungal activity against Candida albicans MTCC 227 assessed as growth inhibition after 48 hr by broth microdilution method. Conditions: MTCC 227, 48 h.
The next assay concerns Staphylococcus aureus. Briefly: Antibacterial activity against Staphylococcus aureus MTCC 2940 assessed as growth inhibition after 24 hr by broth microdilution method. Conditions: MTCC 2940, 24 h.

In brackets after ≈: the same amount, converted by molar mass.

As usually defined, the MIC is the smallest concentration in the dilution series that meets the test's criterion for growth inhibition. Consider `Nc1ccc(S(=O)(=O)NCc2nc3ccccc3c(=O)n2-c2ccccc2Br)cc1`, for which the MIC in the assay on Klebsiella pneumoniae stood at 85 µg/mL (≈ 175 µM); in the assay with Aspergillus niger it was 45 µg/mL (≈ 92.7 µM); with Escherichia coli, 55 µg/mL (≈ 113 µM); with Pseudomonas aeruginosa, 65 µg/mL (≈ 134 µM); in the assay with Bacillus cereus it was 70 µg/mL (≈ 144 µM); with Candida albicans it was 55 µg/mL (≈ 113 µM). The minimal inhibitory concentration (MIC) in the assay with Staphylococcus aureus is 55 µg/mL (≈ 113 µM).

Take `Nc1ccc(S(=O)(=O)NCc2nc3ccccc3c(=O)n2-c2ccccc2F)cc1`: the MIC with Klebsiella pneumoniae was found to be 95 µg/mL (≈ 224 µM); in the assay with Aspergillus niger it was 55 µg/mL (≈ 130 µM); with Escherichia coli, 65 µg/mL (≈ 153 µM); with Pseudomonas aeruginosa, 70 µg/mL (≈ 165 µM); in the assay with Bacillus cereus, 90 µg/mL (≈ 212 µM); in the assay on Candida albicans it was 65 µg/mL (≈ 153 µM). In addition, the MIC in the assay with Staphylococcus aureus was determined as 65 µg/mL (≈ 153 µM).

Regarding `Nc1ccc(S(=O)(=O)NCc2nc3ccccc3c(=O)n2-c2ccc(F)cc2)cc1`, the minimal inhibitory concentration (MIC) with Klebsiella pneumoniae was 85 µg/mL (≈ 200 µM); in the assay on Aspergillus niger, 45 µg/mL (≈ 106 µM); in the assay with Escherichia coli, 55 µg/mL (≈ 130 µM); in the assay on Pseudomonas aeruginosa, 65 µg/mL (≈ 153 µM); with Bacillus cereus, 55 µg/mL (≈ 130 µM); in the assay on Candida albicans, 60 µg/mL (≈ 141 µM). Also, in the assay with Staphylococcus aureus, the MIC was 60 µg/mL (≈ 141 µM).

Consider `CC(=O)Nc1ccc(S(=O)(=O)NCc2nc3ccccc3c(=O)n2-c2ccccc2F)cc1`, for which the MIC with Klebsiella pneumoniae was found to be 95 µg/mL (≈ 204 µM); with Aspergillus niger, 70 µg/mL (≈ 150 µM); in the assay on Escherichia coli it was 80 µg/mL (≈ 171 µM); in the assay with Pseudomonas aeruginosa, 95 µg/mL (≈ 204 µM); in the assay on Bacillus cereus, 105 µg/mL (≈ 225 µM); with Candida albicans it was 85 µg/mL (≈ 182 µM). The MIC with Staphylococcus aureus came out at 85 µg/mL (≈ 182 µM).

On to `CC(=O)Nc1ccc(S(=O)(=O)NCc2nc3ccccc3c(=O)n2-c2ccc(F)cc2)cc1`, for which the minimum inhibitory concentration (MIC) with Klebsiella pneumoniae is 95 µg/mL (≈ 204 µM); in the assay with Aspergillus niger it was 55 µg/mL (≈ 118 µM); in the assay on Escherichia coli, 75 µg/mL (≈ 161 µM); in the assay on Pseudomonas aeruginosa it was 85 µg/mL (≈ 182 µM); in the assay on Bacillus cereus it was 95 µg/mL (≈ 204 µM); in the assay on Candida albicans, 80 µg/mL (≈ 171 µM). The minimum inhibitory concentration (MIC) in the assay with Staphylococcus aureus is 80 µg/mL (≈ 171 µM).

Regarding `Nc1ccc(S(=O)(=O)NCc2nc3ccccc3c(=O)n2Nc2ccccc2)cc1`, the MIC is 115 µg/mL (≈ 273 µM) with Klebsiella pneumoniae; 105 µg/mL (≈ 249 µM) in the assay with Aspergillus niger; 90 µg/mL (≈ 214 µM) in the assay with Escherichia coli; 95 µg/mL (≈ 225 µM) in the assay on Pseudomonas aeruginosa; 105 µg/mL (≈ 249 µM) with Bacillus cereus; 115 µg/mL (≈ 273 µM) in the assay with Candida albicans. The MIC in the assay on Staphylococcus aureus is 100 µg/mL (≈ 237 µM).

With `CC(=O)Nc1ccc(S(=O)(=O)NCc2nc3ccccc3c(=O)n2Nc2ccccc2)cc1`, the MIC in the assay on Klebsiella pneumoniae turned out to be 145 µg/mL (≈ 313 µM); in the assay on Aspergillus niger, 105 µg/mL (≈ 227 µM); in the assay on Escherichia coli it was 115 µg/mL (≈ 248 µM); with Pseudomonas aeruginosa, 125 µg/mL (≈ 270 µM); in the assay with Bacillus cereus, 130 µg/mL (≈ 280 µM); with Candida albicans it was 120 µg/mL (≈ 259 µM). In the assay on Staphylococcus aureus, the MIC stood at 100 µg/mL (≈ 216 µM).

`COc1cccc(-n2c(CNS(=O)(=O)c3ccc(NC(C)=O)cc3)nc3ccccc3c2=O)c1`: the MIC with Klebsiella pneumoniae amounted to 110 µg/mL (≈ 230 µM); with Aspergillus niger, 65 µg/mL (≈ 136 µM); with Escherichia coli, 75 µg/mL (≈ 157 µM); in the assay with Pseudomonas aeruginosa, 100 µg/mL (≈ 209 µM); in the assay with Bacillus cereus, 90 µg/mL (≈ 188 µM); with Candida albicans it was 70 µg/mL (≈ 146 µM). In the assay on Staphylococcus aureus, the MIC came out at 85 µg/mL (≈ 178 µM).

On to `COc1ccc(-n2c(CNS(=O)(=O)c3ccc(NC(C)=O)cc3)nc3ccccc3c2=O)cc1`, for which the MIC stood at 100 µg/mL (≈ 209 µM) with Klebsiella pneumoniae; 40 µg/mL (≈ 83.6 µM) with Aspergillus niger; 50 µg/mL (≈ 104 µM) in the assay with Escherichia coli; 90 µg/mL (≈ 188 µM) in the assay with Pseudomonas aeruginosa; 65 µg/mL (≈ 136 µM) with Bacillus cereus; 50 µg/mL (≈ 104 µM) in the assay with Candida albicans. In addition, the MIC in the assay with Staphylococcus aureus stood at 55 µg/mL (≈ 115 µM).

For the compound `Nc1ccc(S(=O)(=O)NCc2nc3ccccc3c(=O)n2-c2ccccc2[N+](=O)[O-])cc1`, the MIC amounted to 95 µg/mL (≈ 210 µM) in the assay on Klebsiella pneumoniae; 55 µg/mL (≈ 122 µM) with Aspergillus niger; 70 µg/mL (≈ 155 µM) in the assay on Escherichia coli; 75 µg/mL (≈ 166 µM) in the assay on Pseudomonas aeruginosa; 85 µg/mL (≈ 188 µM) in the assay with Bacillus cereus; 65 µg/mL (≈ 144 µM) in the assay with Candida albicans. The minimal inhibitory concentration (MIC) with Staphylococcus aureus was 75 µg/mL (≈ 166 µM).

On to `Nc1ccc(S(=O)(=O)NCc2nc3ccccc3c(=O)n2-c2cccc([N+](=O)[O-])c2)cc1`, for which the MIC is 90 µg/mL (≈ 199 µM) in the assay with Klebsiella pneumoniae; 50 µg/mL (≈ 111 µM) with Aspergillus niger; 60 µg/mL (≈ 133 µM) in the assay with Escherichia coli; 65 µg/mL (≈ 144 µM) in the assay with Pseudomonas aeruginosa; 85 µg/mL (≈ 188 µM) in the assay on Bacillus cereus; 60 µg/mL (≈ 133 µM) with Candida albicans. Besides, the MIC with Staphylococcus aureus worked out at 70 µg/mL (≈ 155 µM).

Regarding `Nc1ccc(S(=O)(=O)NCc2nc3ccccc3c(=O)n2-c2ccc([N+](=O)[O-])cc2)cc1`, the MIC in the assay on Klebsiella pneumoniae was found to be 75 µg/mL (≈ 166 µM); in the assay on Aspergillus niger, 45 µg/mL (≈ 99.7 µM); in the assay on Escherichia coli it was 55 µg/mL (≈ 122 µM); in the assay on Pseudomonas aeruginosa, 60 µg/mL (≈ 133 µM); in the assay on Bacillus cereus, 75 µg/mL (≈ 166 µM); in the assay on Candida albicans it was 55 µg/mL (≈ 122 µM). For the same compound, in the assay with Staphylococcus aureus, the MIC stood at 65 µg/mL (≈ 144 µM).

For `CC(=O)Nc1ccc(S(=O)(=O)NCc2nc3ccccc3c(=O)n2-c2ccccc2[N+](=O)[O-])cc1`, the MIC in the assay with Klebsiella pneumoniae was 115 µg/mL (≈ 233 µM); in the assay on Aspergillus niger it was 65 µg/mL (≈ 132 µM); in the assay with Escherichia coli, 75 µg/mL (≈ 152 µM); in the assay with Pseudomonas aeruginosa, 100 µg/mL (≈ 203 µM); with Bacillus cereus, 90 µg/mL (≈ 182 µM); with Candida albicans, 80 µg/mL (≈ 162 µM). In the assay with Staphylococcus aureus, the MIC worked out at 85 µg/mL (≈ 172 µM).

Consider `CC(=O)Nc1ccc(S(=O)(=O)NCc2nc3ccccc3c(=O)n2-c2cccc([N+](=O)[O-])c2)cc1`, for which the MIC came to 110 µg/mL (≈ 223 µM) with Klebsiella pneumoniae; 60 µg/mL (≈ 122 µM) in the assay on Aspergillus niger; 70 µg/mL (≈ 142 µM) in the assay on Escherichia coli; 95 µg/mL (≈ 193 µM) in the assay on Pseudomonas aeruginosa; 80 µg/mL (≈ 162 µM) in the assay on Bacillus cereus; 75 µg/mL (≈ 152 µM) in the assay with Candida albicans. The MIC in the assay on Staphylococcus aureus stood at 80 µg/mL (≈ 162 µM).

For the origin of these results see ChEMBL document CHEMBL3046289, “Synthesis and in vitro antimicrobial activity of some newer quinazolinonesulfonamide linked hybrid heterocyclic entities derived from glycine” (2013).
